Where “and” joins values, the source holds several entries; their conditions need not be identical. Equal entries are not always repeated.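 Step 1: Grow cells in 96-well plates. Step 2: Expose to compound for 48 hours at 5 concentrations. Step 3: Interpolate endpoints linearly; if unreached, use highest concentration. GI50 marks 50% less growth. TGI: total growth inhibition.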
How the values were obtained:
Assay in all cases: NCI tumour cell line growth inhibition, 48 h
HCT-116 colon = test system: HCT-116 colon
COLO 205 colon = test system: COLO 205 colon
HCT-15 colon = test system: HCT-15 colon
UACC-62 melanoma = test system: UACC-62 melanoma
IGROV1 ovarian = test system: IGROV1 ovarian
ACHN renal = test system: ACHN renal
NCI-H23 lung = test system: NCI-H23 lung
U251 CNS = test system: U251 CNS
UO-31 renal = test system: UO-31 renal
T-47D breast = test system: T-47D breast

SMILES	GI50 (HCT-116 colon)	TGI (HCT-116 colon)	GI50 (COLO 205 colon)	TGI (COLO 205 colon)	GI50 (HCT-15 colon)	TGI (HCT-15 colon)	GI50 (UACC-62 melanoma)	TGI (UACC-62 melanoma)	GI50 (IGROV1 ovarian)	TGI (IGROV1 ovarian)	GI50 (ACHN renal)	TGI (ACHN renal)	GI50 (NCI-H23 lung)	TGI (NCI-H23 lung)	GI50 (U251 CNS)	TGI (U251 CNS)	GI50 (UO-31 renal)	TGI (UO-31 renal)	GI50 (T-47D breast)	TGI (T-47D breast)
CC(=O)N1N=C(c2ccc(Nc3nc(Nc4ccc(Cl)cc4)nc(Nc4ccc(Cl)cc4)n3)cc2)CC1c1ccc([N+](=O)[O-])cc1 (stereo unspecified)	3.24 µM	34.8 µM	1.82 µM	6.64 µM	4.11 µM	> 94.3 µM	11.9 µM	34.9 µM	6.51 µM	> 65.6 µM	5.49 µM	> 100 µM	11.1 µM	> 100 µM	7.42 µM	> 100 µM	4.29 µM	> 100 µM	1.74 µM	7.2 µM
CC(C)(O)C#Cc1ccc(/C=C/C(=O)c2ccccc2)s1	4.08 µM	15.4 µM	16.9 µM	32.7 µM	15.7 µM	30.8 µM	13.7 µM	26.6 µM	14.7 µM	27.8 µM	17 µM	30.7 µM	16.9 µM	34.7 µM	13.6 µM	26.5 µM	14.5 µM	27.6 µM	14.5 µM	67.9 µM
O=S(=O)(Cc1ccc(Cl)cc1Cl)c1ccc(Cl)cc1	0.471 µM	> 100 µM	0.548 µM	5.52 µM	0.419 µM	> 100 µM	0.502 µM	> 100 µM	0.445 µM	> 21.9 µM	1.04 µM	> 100 µM	0.878 µM	> 100 µM	0.496 µM	> 100 µM	1.03 µM	> 53.3 µM	6.02 µM	> 100 µM
CCC1C(=O)OCc2c1cc1n(c2=O)Cc2cc3ccccc3nc2-1 (stereo unspecified)		> 100 µM		> 100 µM		> 100 µM		> 37.6 µM		> 100 µM		> 100 µM		10.6 µM		> 43 µM		11.7 µM		> 90.2 µM
O=C1c2cccnc2C(=O)C2C3C=CC(C3)C12 (stereo unspecified)		14 µM		26.5 µM		34.8 µM		9.94 µM		24 µM		20.4 µM		58 µM		16.7 µM		28.1 µM		13.2 µM
COC(=O)C1=C(C)NC(C)=C(C(=O)OC)C1/C=C(\Cl)c1ccc(Cl)c(Cl)c1	12.2 µM	24.6 µM	17.9 µM	43.2 µM	12.3 µM	26.9 µM	6.42 µM	20.3 µM	15.5 µM	28.9 µM	12.8 µM	25.5 µM	16.8 µM	31 µM	14.1 µM	27.1 µM	13.9 µM	27.1 µM	20.2 µM	50.1 µM
O=c1c2c3c(sc2n2c(-c4cc(-c5ccccc5)no4)nnc2n1Cc1ccccc1)CCCC3	10.3 µM	24.5 µM	1.23 µM	> 40.7 µM	11.6 µM	> 83.4 µM	17.1 µM	44 µM	8.22 µM	87.6 µM	9.32 µM	> 100 µM	36.6 µM	> 100 µM	17.3 µM	> 100 µM	27.1 µM	> 100 µM	3.55 µM	22.1 µM
CCCc1cc(O)c2c3c(c(=O)oc2c1)CN(C)CC3	66.8 µM	> 100 µM	40.6 µM	> 100 µM	39.9 µM	> 100 µM	47.2 µM	> 100 µM	> 100 µM	> 100 µM	> 100 µM	> 100 µM	98.9 µM	> 100 µM	56.4 µM	> 100 µM	35.8 µM	> 100 µM	37.8 µM	> 100 µM
O=c1c2ccccc2c(Br)c(Br)c2ccccc12	4.92 µM	29.3 µM	8.61 µM	23.7 µM	10.7 µM	> 100 µM	18.3 µM	59.5 µM	2.37 µM	5.37 µM	7.46 µM	21.9 µM	12.7 µM	38.7 µM	12.6 µM	29 µM	1.9 µM	3.44 µM	4.43 µM	32.3 µM
S=C(N/N=C(/c1ccccc1)c1ccccn1)N1CCCCC1	< 0.001 µM	1.6 µM and 1.56 µM	< 0.001 µM		< 0.001 µM	2.22 µM and 3.94 µM	0.965 µM	3.16 µM	< 0.001 µM	1.65 µM and 2.56 µM	< 0.001 µM	1.49 µM and 1.46 µM		1.74 µM	< 0.001 µM	1.45 µM and 1.76 µM	0.468 µM	2.01 µM and 1.54 µM	< 0.001 µM	1.01 µM and 2.9 µM
Clc1ccc(/C=C/c2cc(N3CCOCC3)c3cc(Cl)c(Cl)cc3n2)cc1	> 100 µM	> 100 µM	> 100 µM	> 100 µM	> 100 µM	> 100 µM	> 100 µM	> 100 µM	> 100 µM	> 100 µM	> 100 µM	> 100 µM	> 100 µM	> 100 µM	> 100 µM	> 100 µM	0.71 µM	> 45.7 µM	> 100 µM	> 100 µM
C/C=C/C/C=C/CCC(=O)[C@H]1O[C@H]1C(N)=O	8.15 µM	22 µM	15.3 µM	31.5 µM	8.45 µM	24.1 µM	11.4 µM	23.9 µM	13.5 µM	33.3 µM		26.9 µM		29.9 µM	14.5 µM	28.3 µM	9.21 µM	22.9 µM	13.7 µM	34 µM
COc1cc(C(=O)N2N=C(c3ccc(S(C)(=O)=O)cc3)CC2c2ccco2)cc(OC)c1OC (stereo unspecified)	3.77 µM	> 100 µM	2.27 µM	10.1 µM	4.13 µM	> 100 µM	3.82 µM	> 100 µM	5.4 µM	> 100 µM	5.76 µM	> 100 µM	15.2 µM	> 100 µM	5.09 µM	> 100 µM	7.23 µM	> 100 µM	3.79 µM	> 100 µM
COc1cc(-c2nc3sccn3c2-c2ccnc(NCCNS(=O)(=O)c3ccc(Cl)cc3)n2)ccc1F	3.56 µM	> 100 µM	3.48 µM	> 100 µM	3.33 µM	> 100 µM	1.39 µM	5.2 µM	3 µM	> 100 µM	2.77 µM	> 100 µM	3.86 µM	> 100 µM	7.67 µM	> 100 µM	2.72 µM	> 100 µM	1.44 µM	8.46 µM
CCOC(=O)c1sc2ncn(Cc3cccc(Br)c3)c(=O)c2c1C	30.7 µM	93.8 µM	61.5 µM	> 100 µM	62.4 µM	> 100 µM	19.5 µM	92.3 µM	0.172 µM	> 100 µM	84.6 µM	> 100 µM	66.7 µM	> 100 µM	31.7 µM	> 100 µM	34.2 µM	> 100 µM	36.5 µM	> 100 µM
CCOc1ccccc1NC(=O)c1cc2ccccc2cc1O	2.88 µM	8.02 µM	12.7 µM	26.3 µM	3.27 µM	15.6 µM	2.18 µM	9.55 µM	4.66 µM	38.7 µM	2.96 µM	10.3 µM	2.59 µM	9.45 µM	3.11 µM	11.6 µM	2.81 µM	12.5 µM	2.67 µM	14.5 µM
CC(=O)Nc1ccc(/C=C/C(=O)c2ccccc2)cc1	3.98 µM	15.5 µM	14.8 µM	28 µM	7.54 µM	37.4 µM	17.8 µM	39.2 µM	9.44 µM	30.6 µM	13.1 µM	29.6 µM	17.5 µM	43.2 µM	4.61 µM	17.7 µM	5.3 µM	21.2 µM	13.8 µM	42.3 µM
Nc1ccccc1-c1ccc([N+](=O)[O-])cc1	3.4 µM	> 100 µM	10.7 µM	27.2 µM	14.3 µM	> 100 µM	0.756 µM	19.4 µM	19 µM	> 100 µM	4.99 µM	> 100 µM	26.6 µM	> 100 µM	40.7 µM	> 100 µM	5.07 µM	> 100 µM	3.04 µM	> 100 µM
COc1cc2cc(C(=O)CCC(=O)O)sc2cc1OC	> 100 µM	> 100 µM	> 100 µM	> 100 µM	> 100 µM	> 100 µM	> 100 µM	> 100 µM	> 100 µM	> 100 µM	> 100 µM	> 100 µM	> 100 µM	> 100 µM	> 100 µM	> 100 µM	> 100 µM	> 100 µM	> 100 µM	> 100 µM
CCCCCCc1cc2cc(-c3nc4ccccc4[nH]3)c(=Nc3ccccc3C)oc2cc1O	1.83 µM	3.63 µM	> 100 µM	> 100 µM	2.17 µM	5.34 µM	1.62 µM	3.41 µM	2.07 µM	5.89 µM	2.04 µM	5.24 µM	2.46 µM	5.87 µM	1.71 µM	3.3 µM	1.64 µM	4.49 µM	2.12 µM	5.25 µM
CCC[CH2][Sn]([CH2]CCC)([O]C(=O)c1cc(F)ccc1F)[O][Sn]([CH2]CCC)([CH2]CCC)[O]C(=O)c1cc(F)ccc1F	0.293 µM	1.24 µM	0.413 µM	1.2 µM	0.254 µM	0.87 µM	0.206 µM	0.665 µM	1.03 µM	2.33 µM	0.251 µM	0.738 µM	0.0702 µM	0.311 µM	0.175 µM	0.584 µM	0.54 µM	1.78 µM	0.0222 µM	0.207 µM
CCN1/C(=C/C=C/c2n(-c3ccccc3)c3ccc(-c4nc5ccccc5s4)cc3[n+]2CC)N(c2ccccc2)c2ccc(-c3nc4ccccc4s3)cc21	0.436 µM	> 50 µM	0.187 µM	0.919 µM	1 µM	> 50 µM	0.97 µM	> 50 µM	0.75 µM	> 50 µM	0.622 µM	> 50 µM	0.533 µM	5.08 µM	0.274 µM	1.92 µM	0.622 µM	3.57 µM	0.746 µM	> 50 µM
c1ccc2c(c1)sc1c3cnccc3ccc21		> 100 µM		> 100 µM		> 100 µM		> 100 µM		> 100 µM		> 100 µM		> 100 µM		> 100 µM		> 100 µM		> 100 µM

From PubChem BioAssay (NCI)
